Test results reported in patent US9913830B2, “Materials and methods for modulating immune responses” (UNIVERSITY OF FLORIDA RESEARCH FOUNDATION, INCORPORATED, priority 2011, dated 2018).

Experiments:
[1] = system: naïve human CD4+ T cells; experiment: FOXP3 induction in naïve CD4+ T cells, flow cytometry; format: cell-based
Procedure: Freshly isolated naïve (CD4+ CD25− CD127hi CD45RO−) T cells are cultured and treated with PDE3b and PDE4 inhibitors (middle panel) or rapamycin (positive control) (right panel), or are left untreated (left panel). CD25 and FOXP3 expression is measured by flow cytometry after 14 days of expansion.
Treatment of Tregs with small molecules that maintain high cAMP levels in T cells can be used to induce a regulatory phenotype. Small molecules that maintain high cAMP levels in T cells include agents that inhibit PDEs and agents that activate AC.

[2] = system: NOD mice; experiment: Onset of diabetes in NOD mice, blood glucose monitoring; format: in vivo; settings: 8-week old NOD mice, 65 mg/kg i.p., three times a week for five weeks, monotherapy
Procedure: Briefly, 8-week old NOD mice are injected (i.p.) with various doses of cilostamide (low: 0.65 mg/kg, medium: 6.5 mg/kg, high: 65 mg/kg), or vehicle only. Cilostamide is administered three times a week for five weeks. The onset of diabetes in treated mice is monitored by blood glucose measurements. Diabetes is diagnosed if the blood glucose readings are greater than 240 mg/dl for two days.
The increase in level of FoxP3+ cells at an early stage of the autoimmune attack can be used to prevent or delay the onset of autoimmune disease. Briefly, 8-week old NOD mice are treated with various doses (low: 0.65 mg/kg; medium: 6.5 mg/kg; high: 65 mg/kg) of cilostamide via intraperitoneal (i.p.) injection. Cilostamide is administered to the mice three times a week for five weeks.

In the case of CN(C(=O)CCCOc1ccc2[nH]c(=O)ccc2c1)C1CCCCC1 [cilostamide], the FOXP3 induction ([1]; naïve CD4+ CD25− CD45RO− T cells, 14 days of expansion, vs non-treated controls) is reported as “increased FOXP3 induction”, the “ratio of FOXP3+ cells” value ([1]; naïve CD4+ T cells, 14 days, vs rapamycin positive control) is reported as “comparable to that of the rapamycin-treated group” and the onset of diabetes [2] is reported as “delayed the onset of diabetes”.
